Measured values taken from ChEMBL document CHEMBL1201862, “PubChem BioAssay data set” (2004).
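Grown in 96-well plates, cells were treated for 48 hours with each compound at five concentrations. Insufficient inhibition: endpoint recorded as highest concentration tested. GI50 = concentration required for 50% inhibition of growth.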 Active and inactive are the calls of the source. No stated cut-off is given here; in the data, active = GI50 up to about 1.1 µM and inactive = higher.

What was measured:
Test in all cases: DTP human tumour cell line panel, 48 h
NCI-H23 = tested on: NCI-H23
786-0 = tested on: 786-0
OVCAR-3 = tested on: OVCAR-3
SK-OV-3 = tested on: SK-OV-3
M14 = tested on: M14
HOP-62 = tested on: HOP-62
IGROV-1 = tested on: IGROV-1
SW-620 = tested on: SW-620
SR = tested on: SR
OVCAR-8 = tested on: OVCAR-8
CCRF-CEM = tested on: CCRF-CEM
CAKI-1 = tested on: CAKI-1
NCI-H226 = tested on: NCI-H226
UACC-62 = tested on: UACC-62
U-251 = tested on: U-251
MDA-MB-435 = tested on: MDA-MB-435
EKVX = tested on: EKVX
TK-10 = tested on: TK-10
HCT-15 = tested on: HCT-15
MCF7 = tested on: MCF7
COLO 205 = tested on: COLO 205
HT-29 = tested on: HT-29
PC-3 = tested on: PC-3
MOLT-4 = tested on: MOLT-4
MDA-N = tested on: MDA-N
MDA-MB-231 = tested on: MDA-MB-231
NCI-H460 = tested on: NCI-H460
ACHN = tested on: ACHN
HL-60 = tested on: HL-60
Malme-3M = tested on: Malme-3M
NCI/ADR-RES = tested on: NCI/ADR-RES
SK-MEL-5 = tested on: SK-MEL-5
BT-549 = tested on: BT-549
HCC 2998 = tested on: HCC 2998
SNB-19 = tested on: SNB-19
SN12C = tested on: SN12C
LOX IMVI = tested on: LOX IMVI
T47D = tested on: T47D
OVCAR-4 = tested on: OVCAR-4
RPMI-8226 = tested on: RPMI-8226
DU-145 = tested on: DU-145
HOP-92 = tested on: HOP-92
SK-MEL-2 = tested on: SK-MEL-2
NCI-H522 = tested on: NCI-H522
SF-268 = tested on: SF-268
OVCAR-5 = tested on: OVCAR-5
UO-31 = tested on: UO-31
SF-295 = tested on: SF-295
A549 = tested on: A549
RXF 393 = tested on: RXF 393
K562 = tested on: K562
SF-539 = tested on: SF-539
SK-MEL-28 = tested on: SK-MEL-28
KM12 = tested on: KM12
A498 = tested on: A498
Hs-578T = tested on: Hs-578T
HCT-116 = tested on: HCT-116
UACC-257 = tested on: UACC-257
SNB-75 = tested on: SNB-75

For `CC1=NN(C(=O)c2ccccc2O)C(c2ccccc2Cl)C1C(=O)Nc1ccccc1` (configuration not stated), the GI50 (NCI-H23) was < 37.8 nM (active), the GI50 (786-0) was < 45.7 nM (active) and the GI50 (OVCAR-3) was 143 nM (active). The GI50 (SK-OV-3) was 10900 nM (inactive), the GI50 (M14) was 54 nM (active) and the GI50 (HOP-62) was 262 nM (active). The GI50 (IGROV-1) was < 28 nM (active), the GI50 (SW-620) was 388 nM (active) and the GI50 (SR) was < 32.2 nM (active). The GI50 (OVCAR-8) was 98.6 nM (active), the GI50 (CCRF-CEM) was 28.8 nM (active) and the GI50 (CAKI-1) was 159 nM (active). For the same molecule, the GI50 (NCI-H226) was 61.4 nM (active), the GI50 (UACC-62) was < 19.7 nM (active) and the GI50 (U-251) was < 21.3 nM (active). For the same molecule, the GI50 (MDA-MB-435) was < 19.5 nM (active), the GI50 (EKVX) was 1700 nM (inactive) and the GI50 (TK-10) was 3100 nM (inactive). For the same molecule, the GI50 (HCT-15) was 30.3 nM, the GI50 (MCF7) was 38.7 nM (active) and the GI50 (COLO 205) was 5260 nM (inactive). For the same molecule, the GI50 (HT-29) was 2960 nM (inactive), the GI50 (PC-3) was 1750 nM (inactive) and the GI50 (MOLT-4) was < 30.2 nM (active). The GI50 (MDA-N) was < 20.5 nM (active), the GI50 (MDA-MB-231) was 647 nM (active) and the GI50 (NCI-H460) was 96.4 nM (active). The GI50 (ACHN) was 23.8 nM (active), the GI50 (HL-60) was 161 nM (active) and the GI50 (Malme-3M) was 56.5 nM (active). The GI50 (NCI/ADR-RES) was 45.8 nM (active), the GI50 (SK-MEL-5) was 167 nM (active) and the GI50 (BT-549) was < 25.6 nM (active). The GI50 (HCC 2998) was 2840 nM (inactive), the GI50 (SNB-19) was 30.6 nM (active) and the GI50 (SN12C) was 22.4 nM (active). The GI50 (LOX IMVI) was 72.8 nM (active), the GI50 (T47D) was 43.5 nM (active) and the GI50 (OVCAR-4) was 98 nM (active). The GI50 (RPMI-8226) was 72.6 nM (active), the GI50 (DU-145) was < 29.1 nM (active) and the GI50 (HOP-92) was > 100000 nM (inactive). For the same molecule, the GI50 (SK-MEL-2) was 4740 nM (inactive), the GI50 (NCI-H522) was 119 nM (active) and the GI50 (SF-268) was < 10 nM (active). For the same molecule, the GI50 (OVCAR-5) was 458 nM (active), the GI50 (UO-31) was < 22.6 nM (active) and the GI50 (SF-295) was 97.5 nM (active). For the same molecule, the GI50 (A549) was < 15.8 nM (active), the GI50 (RXF 393) was 55.3 nM (active) and the GI50 (K562) was < 23.5 nM (active). For the same molecule, the GI50 (SF-539) was < 29.8 nM (active), the GI50 (SK-MEL-28) was 40400 nM (inactive) and the GI50 (KM12) was 107 nM (active). For the same molecule, the GI50 (A498) was < 10 nM (active), the GI50 (Hs-578T) was < 10 nM (active) and the GI50 (HCT-116) was < 19.6 nM (active). For the same molecule, the GI50 (UACC-257) was 283 nM (active).
With `CCN(CC)c1ccc2cc(-c3nc4ccccc4n3C)c(=O)oc2c1` the GI50 (NCI-H23) was 334 nM (active), the GI50 (786-0) was 381 nM (active) and the GI50 (OVCAR-3) was 240 nM (active). The GI50 (SK-OV-3) was 330 nM (active), the GI50 (M14) was 355 nM (active) and the GI50 (HOP-62) was 411 nM (active). For the same molecule, the GI50 (IGROV-1) was 485 nM (active), the GI50 (SW-620) was 163 nM (active) and the GI50 (SR) was 98.6 nM (active). The GI50 (OVCAR-8) was 497 nM (active), the GI50 (CCRF-CEM) was 154 nM (active) and the GI50 (CAKI-1) was 288 nM (active). For the same molecule, the GI50 (NCI-H226) was 302 nM (active), the GI50 (UACC-62) was 231 nM (active) and the GI50 (U-251) was 352 nM (active). The GI50 (MDA-MB-435) was 36.9 nM (active), the GI50 (TK-10) was > 100000 nM (inactive) and the GI50 (HCT-15) was 170 nM. For the same molecule, the GI50 (MCF7) was 667 nM (active), the GI50 (COLO 205) was 315 nM (active) and the GI50 (HT-29) was 259 nM (active). For the same molecule, the GI50 (PC-3) was 200 nM (active), the GI50 (MOLT-4) was 533 nM (active) and the GI50 (SNB-75) was 17.7 nM (active). The GI50 (MDA-N) was 25.9 nM (active), the GI50 (MDA-MB-231) was 889 nM (active) and the GI50 (NCI-H460) was 286 nM (active). The GI50 (ACHN) was 2790 nM (inactive), the GI50 (HL-60) was 206 nM (active) and the GI50 (NCI/ADR-RES) was 135 nM (active). The GI50 (SK-MEL-5) was 94.8 nM (active), the GI50 (BT-549) was 274 nM (active) and the GI50 (HCC 2998) was 685 nM (active). For the same molecule, the GI50 (SNB-19) was 408 nM (active), the GI50 (SN12C) was 713 nM (active) and the GI50 (LOX IMVI) was 495 nM (active). For the same molecule, the GI50 (T47D) was > 100000 nM (inactive), the GI50 (OVCAR-4) was > 100000 nM (inactive) and the GI50 (RPMI-8226) was 330 nM (active). For the same molecule, the GI50 (DU-145) was 306 nM (active), the GI50 (HOP-92) was 873 nM (active) and the GI50 (SK-MEL-2) was 255 nM (active). For the same molecule, the GI50 (NCI-H522) was 205 nM (active), the GI50 (SF-268) was 2050 nM (inactive) and the GI50 (OVCAR-5) was 1150 nM (inactive). The GI50 (UO-31) was 3520 nM (inactive), the GI50 (SF-295) was 285 nM (active) and the GI50 (A549) was 578 nM (active). The GI50 (RXF 393) was 1740 nM (inactive), the GI50 (K562) was 102 nM (active) and the GI50 (SF-539) was 222 nM (active). For the same molecule, the GI50 (KM12) was 571 nM (active), the GI50 (A498) was 16.3 nM (active) and the GI50 (Hs-578T) was 269 nM (active). For the same molecule, the GI50 (HCT-116) was 204 nM (active) and the GI50 (UACC-257) was 1170 nM (inactive).
In the case of `O=c1oc2ccccc2cc1-c1csc(Nc2cc(Cl)cc(Cl)c2)n1`, the GI50 (NCI-H23) is reported as > 38100 nM (inactive), the GI50 (786-0) is reported as 2270 nM (inactive) and the GI50 (OVCAR-3) is reported as 11500 nM (inactive). The GI50 (SK-OV-3) was > 34600 nM (inactive), the GI50 (M14) was > 35500 nM (inactive) and the GI50 (HOP-62) was 3850 nM (inactive). For the same molecule, the GI50 (IGROV-1) was 14000 nM (inactive), the GI50 (SW-620) was 11900 nM (inactive) and the GI50 (SR) was > 20000 nM (inactive). For the same molecule, the GI50 (OVCAR-8) was 4110 nM (inactive), the GI50 (CCRF-CEM) was 25200 nM (inactive) and the GI50 (NCI-H226) was > 35800 nM (inactive). The GI50 (UACC-62) was 52500 nM (inactive), the GI50 (U-251) was 2390 nM (inactive) and the GI50 (MDA-MB-435) was 4900 nM (inactive). For the same molecule, the GI50 (EKVX) was > 55600 nM (inactive), the GI50 (TK-10) was 20600 nM (inactive) and the GI50 (HCT-15) was greater than 100000 nM. The GI50 (MCF7) was 17400 nM (inactive), the GI50 (COLO 205) was 18000 nM (inactive) and the GI50 (HT-29) was 2850 nM (inactive). For the same molecule, the GI50 (PC-3) was > 100000 nM (inactive), the GI50 (MOLT-4) was > 43000 nM (inactive) and the GI50 (SNB-75) was 2710 nM (inactive). For the same molecule, the GI50 (MDA-N) was 29200 nM (inactive), the GI50 (MDA-MB-231) was 4660 nM (inactive) and the GI50 (NCI-H460) was 6640 nM (inactive). For the same molecule, the GI50 (ACHN) was 1900 nM (inactive), the GI50 (HL-60) was > 90800 nM (inactive) and the GI50 (Malme-3M) was 11700 nM (inactive). For the same molecule, the GI50 (NCI/ADR-RES) was 6590 nM (inactive), the GI50 (SK-MEL-5) was > 56100 nM (inactive) and the GI50 (BT-549) was > 54800 nM (inactive). The GI50 (HCC 2998) was > 100000 nM (inactive), the GI50 (SNB-19) was > 24200 nM (inactive) and the GI50 (SN12C) was 6310 nM (inactive). For the same molecule, the GI50 (LOX IMVI) was 2820 nM (inactive), the GI50 (T47D) was 15500 nM (inactive) and the GI50 (OVCAR-4) was 1790 nM (inactive). The GI50 (RPMI-8226) was > 100000 nM (inactive), the GI50 (DU-145) was 31200 nM (inactive) and the GI50 (HOP-92) was > 39000 nM (inactive). For the same molecule, the GI50 (SK-MEL-2) was > 100000 nM (inactive), the GI50 (NCI-H522) was 20900 nM (inactive) and the GI50 (SF-268) was 12800 nM (inactive). The GI50 (OVCAR-5) was > 100000 nM (inactive), the GI50 (UO-31) was 2770 nM (inactive) and the GI50 (SF-295) was 6350 nM (inactive). For the same molecule, the GI50 (A549) was 4510 nM (inactive), the GI50 (RXF 393) was 5140 nM (inactive) and the GI50 (K562) was > 100000 nM (inactive). For the same molecule, the GI50 (SF-539) was 2280 nM (inactive), the GI50 (SK-MEL-28) was 9510 nM (inactive) and the GI50 (KM12) was > 27500 nM (inactive). The GI50 (A498) was 4940 nM (inactive), the GI50 (Hs-578T) was 12200 nM (inactive) and the GI50 (HCT-116) was 3600 nM (inactive). The GI50 (UACC-257) was > 100000 nM (inactive).
